The results in this text go back to patent publication US7435837B2, “Dihydrobenzofuranyl alkanamine derivatives and methods for using same” (Wyeth, priority 2003, dated 2008).

The first assay addresses T1, human 5-hydroxytryptamine-2C (h5-HT2C) receptor (Homo sapiens, UniProt P28335).
T1 construct: expressed in transfected cells; host or cells: CHO (Chinese Hamster Ovary) cells; membranes
T1 sequence (P28335 33-458): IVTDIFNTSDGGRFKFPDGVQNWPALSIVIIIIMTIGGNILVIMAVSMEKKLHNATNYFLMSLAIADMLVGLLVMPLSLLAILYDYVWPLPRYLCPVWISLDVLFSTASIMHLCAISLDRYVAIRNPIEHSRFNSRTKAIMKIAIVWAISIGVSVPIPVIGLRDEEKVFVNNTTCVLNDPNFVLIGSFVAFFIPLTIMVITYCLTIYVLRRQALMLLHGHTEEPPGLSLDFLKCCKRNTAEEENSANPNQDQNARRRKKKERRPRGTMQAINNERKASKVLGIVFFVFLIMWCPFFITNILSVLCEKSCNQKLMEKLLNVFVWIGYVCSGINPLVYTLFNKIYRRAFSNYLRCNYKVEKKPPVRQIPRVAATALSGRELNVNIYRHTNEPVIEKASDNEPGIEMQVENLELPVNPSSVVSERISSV
The assay can be described thus: [125I]DOI binding to membranes of CHO cells expressing the human 5-HT2C receptor. As to conditions: [125I]DOI radioligand, CHO cell membranes, room temperature 60 min; read-out: 5-HT2C Affinity Ki.
Take `Cc1cc(Cl)ccc1-c1cc(F)cc2c1O[C@@H](CN)C2` [Example 549, {[(2R)-7-(4-chloro-2-methylphenyl)-5-fluoro-2,3-dihydro-1-benzofuran-2-yl]methyl}amine]: the inhibition constant (Ki) (commonly a measure of affinity in units of concentration, obtained from inhibition or displacement) came out at 0.0031 µM. On the same count and under the same terms, next, `NCC1Cc2cc(-c3ccccc3)cc(-c3ccc(F)cc3)c2O1` (racemic) [Example 350, (±)-{[7-(4-fluorophenyl)-5-phenyl-2,3-dihydro-1-benzofuran-2-yl]methyl}amine]: 0.497 µM; `Cc1cccc(C)c1-c1cccc2c1CC(CN)O2` (racemic) [Example 125, (±)-1-[4-(2,6-dimethylphenyl)-2,3-dihydro-1-benzofuran-2-yl]methanamine]: 0.276 µM; `Cc1cc2c(c(-c3c(Cl)cccc3Cl)c1)OC(CN)C2` (single isomer, unassigned; (+)) [Example 304, (+)-{[7-(2,6-dichlorophenyl)-5-methyl-2,3-dihydro-1-benzofuran-2-yl]methyl}amine]: 0.0017 µM. Same read-out and setting: next, `COc1cccc(-c2cc(F)c3c(c2)CC(CN)O3)c1` (racemic) [Example 384, (±)-{[7-fluoro-5-(3-methoxyphenyl)-2,3-dihydro-1-benzofuran-2-yl]methyl}amine]: 1.26 µM. Same read-out and setting: next, `NCC1Cc2cc(C(F)(F)F)cc(-c3ccc(C(F)(F)F)cc3)c2O1` (racemic) [Example 327, (±)-{[5-(trifluoromethyl)-7-(4-(trifluoromethyl)phenyl)-2,3-dihydro-1-benzofuran-2-yl]methyl}amine]: 0.255 µM; `NCC1Cc2cccc(Nc3cccc(Cl)c3)c2O1` (racemic) [Example 190, (±)-N-[2-(aminomethyl)-2,3-dihydro-1-benzofuran-7-yl]-N-(3-chlorophenyl)amine]: 0.186 µM; `CNCC1Cc2cc(-c3cccc(F)c3)cc(F)c2O1` (racemic) [Example 535, (±)-{[7-fluoro-5-(3-fluorophenyl)-2,3-dihydro-1-benzofuran-2-yl]methyl}methylamine]: 1.09 µM. Take `CNCC1Cc2cc(-c3ccccc3)cc(-c3ccc(Cl)cc3)c2O1` (racemic) [Example 507, (±)-{[7-(4-chlorophenyl)-5-phenyl-2,3-dihydro-1-benzofuran-2-yl]methyl}methylamine]: the Ki was found to be 2.73 µM. The same measure, in the same setting: next, `NCC1Cc2cc(-c3ccccc3)cc(-c3ccccc3Cl)c2O1` (racemic) [Example 345, (±)-{[7-(2-chlorophenyl)-5-phenyl-2,3-dihydro-1-benzofuran-2-yl]methyl}amine]: 0.098 µM; `CNCC1Cc2cc(C(F)(F)F)cc(-c3ccc(F)c(F)c3)c2O1` (racemic) [Example 522, (±)-N-methyl-1-[7-(3,4-difluorophenyl)-5-(trifluoromethyl)-2,3-dihydro-1-benzofuran-2-yl]methanamine]: 0.474 µM; `NCC1Cc2cc(C(F)(F)F)cc(-c3ccc(F)c(F)c3)c2O1` (racemic) [Example 334, (±)-{[7-(3,4-difluorophenyl)-5-(trifluoromethyl)-2,3-dihydro-1-benzofuran-2-yl]methyl}amine]: 0.324 µM. For `NCC1Cc2cc(Cl)cc(C3CCCCC3)c2O1` (racemic) [Example 11, (±)-(5-chloro-7-cyclohexyl-2,3-dihydro-1-benzofuran-2-yl)methylamine], the inhibitory constant (Ki) came to 0.106 µM. Same read-out and setting: next, `NCC1Cc2cccc(Nc3cccc(OC(F)(F)F)c3)c2O1` (racemic) [Example 187, (±)-N-[2-(aminomethyl)-2,3-dihydro-1-benzofuran-7-yl]-N-(3-trifluoromethoxy)phenyl]amine]: 0.247 µM; `NCC1Cc2cccc(-c3ccc4ccccc4c3)c2O1` (racemic) [Example 39, (±)-1-[7-(2-naphthyl)-2,3-dihydro-1-benzofuran-2-yl]methanamine]: 0.043 µM; `Cc1ccc(-c2cc(-c3ccccc3)cc3c2OC(CN)C3)cc1` (racemic) [Example 353, (±)-{[7-(4-methylphenyl)-5-phenyl-2,3-dihydro-1-benzofuran-2-yl]methyl}amine]: 0.845 µM. Still for that read-out and setting: in the case of `COc1cccc(-c2cc(F)cc3c2OC(CN)C3)c1` (racemic) [Example 197, (±)-{[5-fluoro-7-(3-methoxyphenyl)-2,3-dihydro-1-benzofuran-2-yl]methyl}amine] it was 0.063 µM; in that of `COc1cc2c(c(C(C)(C)C)c1)OC(CN)C2` (single isomer, unassigned; (+)) [Example 116, (+)-1-(7-tert-butyl-5-methoxy-2,3-dihydro-1-benzofuran-2-yl)methanamine], 0.527 µM; in that of `CNCC1Cc2cc(C(F)(F)F)cc(-c3cc(F)ccc3F)c2O1` (racemic) [Example 523, (±)-N-methyl-1-[7-(2,5-difluorophenyl)-5-(trifluoromethyl)-2,3-dihydro-1-benzofuran-2-yl]methanamine], 0.061 µM. Turning to `COc1ccccc1-c1cc(F)c2c(c1)CC(CN)O2` (racemic) [Example 379, (±)-{[7-fluoro-5-(2-methoxyphenyl)-2,3-dihydro-1-benzofuran-2-yl]methyl}amine], the Ki was found to be 0.453 µM. The same measure, in the same setting: next, `COc1cc(Cl)cc2c1OC(CN)C2` (racemic) [Example 111, (±)-1-(5-chloro-7-methoxy-2,3-dihydro-1-benzofuran-2-yl)methanamine]: 0.026 µM; `NCC1Cc2cc(F)cc(-c3cccc(F)c3)c2O1` (racemic) [Example 196, (±)-{[5-fluoro-7-(3-fluorophenyl)-2,3-dihydro-1-benzofuran-2-yl]methyl}amine]: 0.108 µM.

Turning to `NCC1Cc2cc(F)cc(-c3cncnc3)c2O1` (racemic) [Example 210, (±)-[(5-fluoro-7-pyrimidin-5-yl-2,3-dihydro-1-benzofuran-2-yl)methyl]amine], the inhibition constant Ki was determined as 0.036 µM. The same measure, in the same setting: in the case of `CC(C)(C)/C=C/c1cccc2c1OC(CN)C2` (racemic) [Example 117, (±)-1-{7-[(1E)-3,3-dimethylbut-1-enyl]-2,3-dihydro-1-benzofuran-2-yl}methanamine] it was 0.263 µM. Take `CNCC1Cc2cc(-c3ccccc3)cc(-c3ccc(OC)cc3)c2O1` (racemic) [Example 516, (±)-{[7-(4-methoxyphenyl)-5-phenyl-2,3-dihydro-1-benzofuran-2-yl]methyl}methylamine]: the inhibition constant (Ki) is 1.58 µM. The same measure, in the same setting: next, `COc1ccc(Nc2cccc3c2OC(CN)C3)cc1` (racemic) [Example 176, (±)-N-[2-(aminomethyl)-2,3-dihydro-1-benzofuran-7-yl]-N-(4-methoxyphenyl)amine]: 0.488 µM; `COc1cc2c(c(C(C)(C)C)c1)OC(CN)C2` (racemic) [Example 13, (±)-(7-tert-butyl-5-methoxy-2,3-dihydro-1-benzofuran-2-yl)methylamine]: 0.133 µM. Still for that read-out and setting: next, `NCC1Cc2cc(Cl)cc(-c3ccc(F)c(Cl)c3)c2O1` (racemic) [Example 259, (±)-{[5-chloro-7-(3-chloro-4-fluorophenyl)-2,3-dihydro-1-benzofuran-2-yl]methyl}amine]: 0.069 µM.

For the molecule `CNCC1Cc2cc(-c3cccc(C(F)(F)F)c3)cc(F)c2O1` (racemic) [Example 536, (±)-{7-fluoro-5-[3-(trifluoromethyl)phenyl]-2,3-dihydro-1-benzofuran-2-yl}methyl)methylamine], the Ki came out at 1.12 µM. Still for that read-out and setting: in the case of `NCC1Cc2cc(C(F)(F)F)cc(-c3cccc(F)c3)c2O1` (racemic) [Example 319, (±)-{[5-(trifluoromethyl)-7-(3-fluorophenyl)-2,3-dihydro-1-benzofuran-2-yl]methyl}amine] it was 0.083 µM. Same read-out and setting: next, `CNCC1Cc2cc(-c3ccc(C(F)(F)F)cc3)cc(F)c2O1` (racemic) [Example 541, (±)-{7-fluoro-5-[4-(trifluoromethyl)phenyl]-2,3-dihydro-1-benzofuran-2-yl}methyl)methylamine]: 0.316 µM; `NCCC1Cc2ccc(Cl)c(-c3ccccc3Cl)c2O1` (racemic) [Example 552, (±)-{2-[6-chloro-7-(2-chlorophenyl)-2,3-dihydro-1 benzofuran-2-yl]ethyl}amine]: 0.0003 µM. For `CNCC1Cc2cc(-c3cccc(C)c3)cc(F)c2O1` (racemic) [Example 533, (±)-{7-fluoro-5-[3-methylphenyl]-2,3-dihydro-1-benzofuran-2-yl}methyl)methylamine], the Ki was 1.52 µM. The same measure, in the same setting: in the case of `Cc1cccc(-c2cc(C(F)(F)F)cc3c2OC(CN)C3)c1` (racemic) [Example 318, (±)-{[5-(trifluoromethyl)-7-(3-methylphenyl)-2,3-dihydro-1-benzofuran-2-yl]methyl}amine] it was 0.098 µM; in that of `NCC1Cc2cccc(Nc3cc(F)cc(F)c3)c2O1` (racemic) [Example 186, (±)-N-[2-(aminomethyl)-2,3-dihydro-1-benzofuran-7-yl]-N-(3,5-difluorophenyl)amine], 0.171 µM; in that of `CNCC1Cc2cc(Cl)cc(-c3ccsc3)c2O1` (single isomer, unassigned; (-)) [Example 94, (−)-N-[(5-chloro-7-thien-3-yl-2,3-dihydro-1-benzofuran-2-yl)methyl]-N-methylamine], 0.176 µM.

The same assay, now with this note: reference compounds; 95% confidence interval in parentheses; [125I]DOI radioligand; read-out: Ki.
`CSc1ccc2c(c1)C(N1CCN(C)CC1)Cc1ccccc1S2` (centres unmarked) [Methiothepin, reference compound]: the Ki is 0.0046 µM.

The same assay, now with this note: saturation binding with increasing concentrations of [125I] DOI; read-out: dissociation constant, KD.
`COc1cc(CC(C)N)c(OC)cc1I` (centres unmarked) [[^125I] DOI, reference compound]: the Kd (commonly the free concentration of one partner at which half of the binding sites on the other are occupied at equilibrium, for simple one-to-one binding) was 0.0004 µM.
